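Tested at 5 concentrations; 48 h exposure; 96-well plates; endpoints linearly interpolated, else capped at highest concentration. Here, GI50 denotes the concentration required for 50% inhibition of growth.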 Calls of active or inactive are those of the source. Rule as the data show it: active = GI50 up to about 1.1 µM and inactive = higher.
Tests used:
Experiment in all cases: growth of human tumour cells (NCI), 48 h
[1] = system: LOX IMVI
[2] = system: SK-MEL-28
[3] = system: SNB-75
[4] = system: U-251
[5] = system: COLO 205
[6] = system: NCI-H460
[7] = system: SK-MEL-2
[8] = system: Malme-3M
[9] = system: SF-295
[10] = system: SNB-19
[11] = system: SW-620
[12] = system: RPMI-8226
[13] = system: T47D
[14] = system: EKVX
[15] = system: MOLT-4
[16] = system: HCC 2998
[17] = system: UO-31
[18] = system: A549
[19] = system: MDA-N

Measured: GI50

CCN(CC)C(=O)Cn1c2ccccc2[n+]2cc(N)ccc12
inactive: [1] > 100 µM | [2] > 100 µM | [3] > 100 µM | [4] > 100 µM | [5] > 100 µM | [6] > 100 µM | [7] > 100 µM | [8] > 100 µM | [9] > 100 µM | [10] > 100 µM | [11] > 100 µM | [12] > 100 µM | [13] > 100 µM | [14] > 100 µM | [15] > 100 µM | [16] > 100 µM | [17] > 100 µM | [18] > 100 µM

O=C(Cc1ccc(O)c(O)c1)NCc1c[nH]c2ccccc12
inactive: [2] 83.6 µM | [3] > 100 µM | [5] 42 µM | [6] 40.6 µM | [7] > 100 µM | [8] 23.1 µM | [9] 93.3 µM | [10] 94 µM | [11] 92 µM | [12] 18.1 µM | [13] > 100 µM | [14] 43.9 µM | [15] 20.4 µM | [16] 62.2 µM | [17] 42.3 µM | [18] 64.7 µM

COc1cc2c(cc1OC)C(N)CC2=O (stereo not drawn)
inactive: [1] > 100 µM | [2] > 100 µM | [3] > 100 µM | [4] > 100 µM | [5] > 100 µM | [7] > 100 µM | [9] > 100 µM | [10] > 100 µM | [11] > 100 µM | [12] > 100 µM | [13] > 100 µM | [14] > 100 µM | [15] > 100 µM | [16] > 100 µM | [17] > 100 µM | [18] > 100 µM

O=[N+]([O-])c1ccc2nnnn2c1
inactive: [1] 5.7 µM | [2] 20.8 µM | [3] 85.3 µM | [4] 23.2 µM | [5] 23.9 µM | [6] 31.6 µM | [7] 23.3 µM | [8] 20.9 µM | [9] 11.3 µM | [10] 93.8 µM | [11] 12.7 µM | [13] > 100 µM | [14] > 100 µM | [15] 2.62 µM | [17] 7.89 µM | [18] 45.3 µM

Cc1cc(C)c(C#N)c(SC(=S)NC(=O)c2ccc(Cl)cc2)n1
inactive: [1] > 100 µM | [2] > 100 µM | [3] > 100 µM | [4] > 100 µM | [5] > 100 µM | [6] > 100 µM | [7] > 100 µM | [9] > 100 µM | [10] > 100 µM | [11] > 100 µM | [12] > 100 µM | [13] > 100 µM | [14] > 100 µM | [16] > 100 µM | [17] > 100 µM | [18] > 100 µM

O=[N+]([O-])c1c(Br)cc(Br)c2c1Nc1c(ccc(Cl)c1Cl)S2
inactive: [1] 2.34 µM | [2] 16.6 µM | [3] 36.5 µM | [4] 17.9 µM | [5] 11.9 µM | [6] 17.8 µM | [7] 18.5 µM | [8] 13.4 µM | [9] 20.7 µM | [10] 18.3 µM | [11] 7.14 µM | [12] 14.4 µM | [13] 1.61 µM | [14] 16.6 µM | [15] 3.06 µM | [16] 12.4 µM | [17] 7.91 µM | [18] 20.2 µM

Cn1c(=O)sc2cc(C(=S)N3CCC(Cc4ccccc4)CC3)ccc21
inactive: [1] 58.5 µM | [2] 46.6 µM | [4] 16.2 µM | [5] 83.2 µM | [6] 27.8 µM | [7] > 100 µM | [9] 27.3 µM | [10] > 100 µM | [11] > 100 µM | [12] 9.89 µM | [14] 9.42 µM | [15] 20.9 µM | [19] 72.1 µM

CNc1nnc(CCCCCCCCc2nnc(NC)o2)o1
inactive: [1] 16.4 µM | [2] > 100 µM | [3] > 100 µM | [4] 22.2 µM | [5] > 100 µM | [6] 42 µM | [7] > 100 µM | [9] 75.2 µM | [10] > 100 µM | [11] 40.7 µM | [14] > 100 µM | [15] 34.7 µM | [19] > 100 µM | [17] > 100 µM | [18] > 100 µM

CC1CN(C)c2ccccc2N=C1NN (stereo not drawn)
inactive: [2] > 100 µM | [4] > 100 µM | [5] > 100 µM | [6] > 100 µM | [7] > 100 µM | [8] > 100 µM | [9] > 100 µM | [10] > 100 µM | [11] > 100 µM | [12] > 100 µM | [14] > 100 µM | [15] > 100 µM | [19] > 100 µM | [17] > 100 µM | [18] > 100 µM

Cc1ccccc1N/C(=C(/C(Cl)=C(Cl)Cl)[N+](=O)[O-])n1nnc2ccccc21
inactive: [2] 17 µM | [3] 16.6 µM | [4] 16.3 µM | [5] 15.7 µM | [6] 14.2 µM | [7] 10.8 µM | [8] 14.7 µM | [9] 14.9 µM | [10] 19.6 µM | [11] 15.9 µM | [12] 24.1 µM | [13] 21 µM | [14] 20.5 µM | [15] > 100 µM | [16] 18 µM | [17] 16.7 µM | [18] 41.7 µM

Nn1nnc2ccccc21
inactive: [1] > 100 µM | [2] > 100 µM | [3] > 100 µM | [4] > 100 µM | [5] > 100 µM | [6] > 100 µM | [8] > 100 µM | [9] > 100 µM | [10] > 100 µM | [11] > 100 µM | [12] > 100 µM | [13] > 100 µM | [14] > 100 µM | [15] > 100 µM | [16] > 100 µM | [17] > 100 µM | [18] > 100 µM

O=C(Nc1ccc(Cl)cc1)c1cc2c(cc1Cl)SC(NNCCO)=NS2(=O)=O
inactive: [1] > 100 µM | [2] > 100 µM | [3] > 100 µM | [4] > 100 µM | [5] 49.7 µM | [6] > 100 µM | [7] > 100 µM | [9] > 100 µM | [10] > 100 µM | [11] > 100 µM | [12] > 100 µM | [13] 24.8 µM | [14] > 100 µM | [15] > 100 µM | [16] > 100 µM | [17] > 100 µM

From ChEMBL document CHEMBL1201862, “PubChem BioAssay data set” (2004)
